Measurements published in patent publication US10125101B2, “Indanylaminopyridylcyclopropanecarboxylic acids, pharmaceutical compositions and uses thereof” (Boehringer Ingelheim International GmbH, priority 2016, dated 2018).
In brackets after ≈: the same amount, converted by molar mass. Like-named read-outs stand apart in the source and are kept apart here.

What was measured:
[1] = target: cytochrome P450 2C9-isoenzyme (Homo sapiens (Human), UniProt P11712); experiment: Inhibition of CYP-2C9 (diclofenac hydroxylation, human liver microsomes); assay type: in vitro ADME; details: diclofenac 10 μM, 37° C.
Sequence of cytochrome P450 2C9-isoenzyme (P11712 whole entry): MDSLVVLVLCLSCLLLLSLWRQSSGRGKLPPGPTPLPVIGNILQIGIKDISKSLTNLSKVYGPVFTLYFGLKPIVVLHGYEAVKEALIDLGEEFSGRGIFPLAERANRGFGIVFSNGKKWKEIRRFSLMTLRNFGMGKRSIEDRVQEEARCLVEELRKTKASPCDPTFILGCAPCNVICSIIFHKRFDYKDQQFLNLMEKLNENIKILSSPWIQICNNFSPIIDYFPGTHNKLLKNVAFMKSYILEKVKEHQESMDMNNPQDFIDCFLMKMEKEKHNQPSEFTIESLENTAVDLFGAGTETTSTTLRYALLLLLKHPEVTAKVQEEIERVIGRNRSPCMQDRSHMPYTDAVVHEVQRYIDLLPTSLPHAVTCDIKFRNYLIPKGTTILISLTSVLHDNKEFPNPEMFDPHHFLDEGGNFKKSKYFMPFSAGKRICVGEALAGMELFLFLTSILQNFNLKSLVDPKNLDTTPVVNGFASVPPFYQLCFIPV
Description: (§1) All assays are carried out on a robotic system in 96 well plates. The final incubation volume contains TRIS buffer (0.1 M), MgCl2 (5 mM), human liver microsomes (0.1 mg/mL), diclofenac (10 μM) and the test compound at five different concentrations or no compound (high control) in duplicate (e.g., highest concentration 10-50 μM with subsequent serial 1:4 dilutions). Following a short preincubation period, reactions are started with the cofactor (NADPH, 1 mM) and stopped by cooling the incubation down to 8° C. and subsequently by addition of one volume of acetonitrile. An internal standard solution—the stable isotope ^13C6-hydroxydiclofenac—is added after quenching of incubations. Peak area analyte (=metabolite formed) and internal standard is determined by LC-MS/MS. The resulting peak area ratio analyte to internal standard in these incubations is compared to a control activity containing no test compound. Within each of the assay runs, the IC50 of a positive control inhibitor (sulfaphenazole) is determined.

[2] = Chemical stability (degradation kinetics) in acidic aqueous media; assay type: physicochemical; details: pH value ca. 1.2 (acetonitrile/0.1 M aqueous HCl 2:3), 37° C.
Description: Degradation kinetics is used to simulate chemical stability of compounds in the acidic part of the gastro intestinal tract. […] Their application as medical drugs to treat human diseases is therefore less restricted and troublesome.
The chemical stability of the compounds of the invention at pH value of ca. 1.2 is determined as follows:
Compound is dissolved in an HPLC vial either in a mixture of acetonitrile/0.1 M aqueous HCl (2:3; pH ca. 1.2) or in a mixture of acetonitrile/McIlvaine buffer pH 7.4 (2:3) to get a concentration of approximately 0.25 mg/ml. The vial was then transferred into an HPLC autosampler system and maintained at a temperature of 37° C. A first sample is taken and injected immediately into a standard HPLC system with a UV DAD detector. Further samples are injected after 2, 4, 6, 8 and 10 hours. Amount of degraded compound is measured by determining the recovery rate of compound [%] for each injection using an HPLC standard gradient method. Therefore the peak area of the main peak for the first injection (AUt0) is determined and set as 100%. Peak area of the main peak is determined also for the further injections (AUtn, n=2, 4, 6, 8, 10) and expressed as fraction of (AUt0)/(AUtn, n=2, 4, 6, 8, 10) [%].

human GPR40 receptor = human GPR40 receptor (Homo sapiens (Human), UniProt O14842); experiment: IP1 accumulation measurements using the IPOne assay system; assay type: cell-based
Sequence of human GPR40 receptor (O14842 whole entry): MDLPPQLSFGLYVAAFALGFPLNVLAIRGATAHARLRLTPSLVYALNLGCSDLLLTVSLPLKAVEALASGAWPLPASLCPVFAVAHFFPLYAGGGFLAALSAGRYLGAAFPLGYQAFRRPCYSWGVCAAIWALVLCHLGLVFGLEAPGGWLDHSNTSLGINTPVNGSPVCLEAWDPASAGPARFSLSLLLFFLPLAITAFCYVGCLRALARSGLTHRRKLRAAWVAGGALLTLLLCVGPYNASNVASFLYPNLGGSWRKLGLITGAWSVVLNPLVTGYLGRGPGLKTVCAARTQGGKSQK
Description: IP1 accumulation measurements using the IPOne assay system—1321N1 cells stably expressing human GPR40 receptor (Euroscreen, Belgium) are seeded 24 h before the assay in white 384-well plates in culture medium containing 10% FCS, 1% Na-Pyruvate and 400 μg/mL G418. IP1 is assayed according to the manufacturer's description (Cisbio Bioassays, France). In brief, the assay is started by substitution of the culture medium by stimulation buffer (Hepes 10 mM, CaCl2 1 mM, MgCl2 0.5 mM, KCl 4.2 mM, NaCl 146 mM, glucose 5.5 mM and LiCl 50 mM, pH 7.4). Cells are stimulated for 1 h at 37° C., 5% CO2 by addition of the compounds that are diluted in stimulation buffer containing LiCl. Assays are stopped by adding HTRF-conjugates (IP1-d2 and Anti-IP1 cryptate Tb) and lysis buffer, provided by the manufacturer. After an incubation time of 1 h at room temperature plates are measured using an EnVision™, Perkin Elmer. The obtained fluorescence ratios at 665/615 […] are then used to calculate the pEC50 values using Assay Explorer 3.3 Software (Accelrys, Inc.) by interpolation using an IP1 reference curve and subsequent sigmoidal curve fitting allowing for a variable hill slope.

[3] = target: cytochrome P450 2C8-isoenzyme (Homo sapiens (Human), UniProt P10632); experiment: Inhibition of CYP-2C8 (amodiaquine deethylation, human liver microsomes); assay type: in vitro ADME; details: amodiaquine 1 μM, 37° C.
Sequence of cytochrome P450 2C8-isoenzyme (P10632 whole entry): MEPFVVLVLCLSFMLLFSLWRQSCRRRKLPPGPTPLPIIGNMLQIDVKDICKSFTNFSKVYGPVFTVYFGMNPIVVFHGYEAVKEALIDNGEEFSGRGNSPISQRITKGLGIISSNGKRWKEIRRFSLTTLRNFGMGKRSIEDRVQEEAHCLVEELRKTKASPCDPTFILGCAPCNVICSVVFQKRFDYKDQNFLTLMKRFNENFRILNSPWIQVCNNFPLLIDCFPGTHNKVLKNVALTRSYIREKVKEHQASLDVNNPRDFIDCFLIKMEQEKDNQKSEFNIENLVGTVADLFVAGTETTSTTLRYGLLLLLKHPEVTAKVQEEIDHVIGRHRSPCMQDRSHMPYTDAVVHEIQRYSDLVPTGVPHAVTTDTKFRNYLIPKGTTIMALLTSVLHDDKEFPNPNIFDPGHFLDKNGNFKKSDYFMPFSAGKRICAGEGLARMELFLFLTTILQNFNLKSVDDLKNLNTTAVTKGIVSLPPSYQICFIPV
Description: as §1, with “microsomes (0.05” for “microsomes (0.1”, “mg/mL), amodiaquine (1” for “mg/mL), diclofenac (10”, “duplicate (e.g.” for “duplicate (e.g.,”, “isotope d5-desethylamodiaquine—is” for “isotope ^13C6-hydroxydiclofenac—is”, “inhibitor (Montelukast)” for “inhibitor (sulfaphenazole)”

Aqueous solubility = assay type: physicochemical; details: buffer pH 2.2, 24 h shaking, 2.5% DMSO; for solubility at 24 h: aqueous buffer, kinetic from dmso stock
Description: Starting from a 10 mM DMSO stock solution aliquots are diluted with acetonitrile/water (1/1) or buffer, respectively. After 24 h of shaking, the solutions are filtrated and analyzed by LC-UV. The amount dissolved in buffer is compared to the amount in the acetonitrile solution.

[4] = 1321N1 cells stably expressing human GPR40, 1 h stimulation, read-out: EC50
[5] = head-to-head compilation, given as IC50, values equal the EC50 of Table 2, read-out: GPR40: IC50

Row | Compound | IC50 [1] | Amount of degradation after 2 h [2] | EC50 (human GPR40 receptor; [4]) | IC50 [3] | solubility at 24 h (Aqueous solubility) | EC50 (human GPR40 receptor; [5]) | Solubility at pH value 2.2 (Aqueous solubility)
1 | Cc1cc(O[C@@H]2COC[C@H]2O)cc(C)c1-c1ccc(F)c2c1CC[C@H]2Nc1ccc([C@H]2C[C@@H]2C(=O)O)nc1 [Example 5, (1S,2S)-2-(5-{(R)-7-Fluoro-4-[4-((3R,4R)-4-hydroxy-tetrahydro-furan-3-yloxy)-2,6-dimethyl-phenyl]-indan-1-ylamino}-pyridin-2-yl)-cyclopropanecarboxylic acid] | > 50 µM | <0.5% | 35 nM | > 50 µM | 121 µg/mL (≈ 233 µM) |  | 
2 | Cc1cc(-c2nnn(C)n2)cc(C)c1-c1ccc(F)c2c1CC[C@H]2Oc1ccc([C@H]2C[C@@H]2C(=O)O)cc1 [Example 15 in WO 2013/178575] |  | 3% |  |  |  |  | 
3 | Cc1cc(OCCC(C)(C)O)cc(C)c1-c1ccc(F)c2c1CC[C@H]2Oc1ccc([C@H]2C[C@@H]2C(=O)O)cc1 [Example 17 in WO 2013/178575, reference compound] | 14 µM | 8% |  | 6 µM | < 1 µg/mL | 4 nM | < 1 μg/mL
4 | O=C(O)[C@H]1C[C@@H]1c1ccc(N[C@@H]2CCc3c(-c4c(Cl)cccc4Cl)ccc(F)c32)cn1 [Example 24] | 22 µM |  | 4 nM | 11 µM |  |  | >122 μg/mL
5 | Cc1cc(OCC2CCOCC2)cc(C)c1-c1ccc(F)c2c1CC[C@H]2Nc1ccc([C@H]2C[C@@H]2C(=O)O)nc1 [Example 26] | 16 µM |  | 6 nM | 14 µM |  |  | 90 μg/mL
6 | O=C(O)[C@H]1C[C@@H]1c1ccc(N[C@@H]2CCc3c(-c4ccccc4C(F)(F)F)ccc(F)c32)cn1 [Example 31] | 31 µM |  | 27 nM | 15 µM |  |  | 87 μg/mL
7 | Cc1cc(OCC2CCOC2)cc(C)c1-c1ccc(F)c2c1CC[C@H]2Nc1ccc([C@H]2C[C@@H]2C(=O)O)nc1 (some centres unmarked) [Example 32] | > 50 µM |  | 7 nM | 26 µM |  |  | 123 μg/mL
8 | Cc1cc(-c2nnn(C)n2)cc(C)c1-c1ccc(F)c2c1CC[C@H]2Oc1ccc([C@H]2C[C@@H]2C(=O)O)cc1 [Example 33 in WO 2013/178575] |  | 8% |  |  |  |  | 
9 | Cc1cc(OCC(C)(C)O)cc(C)c1-c1ccc(F)c2c1CC[C@H]2Nc1ccc([C@H]2C[C@@H]2C(=O)O)nc1 [Example 34] | > 50 µM |  | 10 nM | 45 µM |  |  | 111 μg/mL
10 | Cc1cc(OC2CCOCC2)cc(C)c1-c1ccc(F)c2c1CC[C@H]2Nc1ccc([C@H]2C[C@@H]2C(=O)O)nc1 [Example 35] | > 50 µM |  | 11 nM | 31 µM |  |  | 106 μg/mL
11 | CC(C)c1ccccc1-c1ccc(F)c2c1CC[C@H]2Nc1ccc([C@H]2C[C@@H]2C(=O)O)nc1 [Example 36] | 22 µM |  | 15 nM | 10 µM |  |  | 91 μg/mL
12 | Cc1cc(OCC2(O)CCOCC2)cc(C)c1-c1ccc(F)c2c1CC[C@H]2Nc1ccc([C@H]2C[C@@H]2C(=O)O)nc1 [Example 37] | > 50 µM |  | 19 nM | 41 µM |  |  | 119 μg/mL
13 | Cc1cc(OCC2(O)CCS(=O)(=O)CC2)cc(C)c1-c1ccc(F)c2c1CC[C@H]2Nc1ccc([C@H]2C[C@@H]2C(=O)O)nc1 [Example 38] | > 50 µM |  | 18 nM | > 50 µM |  |  | >154 μg/mL
14 | Cc1cc(-c2nnn(C)n2)cc(C)c1-c1ccc(F)c2c1CC[C@H]2Oc1ccc([C@H]2C[C@@H]2C(=O)O)cc1 [Example 45 in WO 2013/178575, reference compound] | 10 µM |  |  | 5 µM | < 1 µg/mL | 8 nM | < 1 μg/mL
15 | Cc1cc(-c2nnn(C)n2)cc(C)c1-c1ccc(F)c2c1CC[C@H]2Oc1ccc([C@H]2C[C@@H]2C(=O)O)cc1 [Example 54 in WO 2013/178575] |  | 2.5%^ |  |  |  |  | 

Results, then the molecule that gave them:

Row | IC50 [1] | Amount of degradation after 2 h [2] | EC50 (human GPR40 receptor; [4]) | IC50 [3] | solubility at 24 h (Aqueous solubility) | EC50 (human GPR40 receptor; [5]) | Solubility at pH value 2.2 (Aqueous solubility) | Compound
16 | > 50 µM |  | 2 nM | 34 µM |  |  | 113 μg/mL | Cc1cc(-c2nnn(CC(C)(C)O)n2)cc(C)c1-c1ccc(F)c2c1CC[C@H]2Nc1ccc([C@H]2C[C@@H]2C(=O)O)nc1 [Example 20]
17 | 36 µM |  | 2 nM | 15 µM |  |  | 91 μg/mL | Cc1cnc(-c2cc(C)c(-c3ccc(F)c4c3CC[C@H]4Nc3ccc([C@H]4C[C@@H]4C(=O)O)nc3)c(C)c2)nc1 [Example 21]
18 | 19 µM |  | 5 nM | 8 µM |  |  | 106 μg/mL | COc1cc(-c2cc(C)c(-c3ccc(F)c4c3CC[C@H]4Nc3ccc([C@H]4C[C@@H]4C(=O)O)nc3)c(C)c2)ccn1 [Example 22]
19 | > 50 µM |  | 668 nM | 43 µM |  |  | 97 μg/mL | Cc1cc(C(=O)O)cc(C)c1-c1ccc(F)c2c1CC[C@H]2Nc1ccc([C@H]2C[C@@H]2C(=O)O)nc1 [Example 23]
20 | > 50 µM |  | 148 nM | > 50 µM |  |  | 112 μg/mL | CNC(=O)c1cc(C)c(-c2ccc(F)c3c2CC[C@H]3Nc2ccc([C@H]3C[C@@H]3C(=O)O)nc2)c(C)c1 [Example 27]
21 | > 50 µM |  | 4 nM | 14 µM |  |  | 117 μg/mL | Cc1cc(-c2ccn(C)c(=O)c2)cc(C)c1-c1ccc(F)c2c1CC[C@H]2Nc1ccc([C@H]2C[C@@H]2C(=O)O)nc1 [Example 29]
22 | > 50 µM |  | 148 nM | > 50 µM |  |  | 118 μg/mL | Cc1cc(C(=O)N(C)C)cc(C)c1-c1ccc(F)c2c1CC[C@H]2Nc1ccc([C@H]2C[C@@H]2C(=O)O)nc1 [Example 39]
